From ChEMBL document CHEMBL1156829 (Proc Natl Acad Sci U S A, 2008)
pEC50: −log10 of the molar value.

Columns and labels:
[1] = NOVARTIS: Cytotoxicity against human hepatocellular carcinoma cell line (Huh7); assay type: toxicity, cell-based, Huh-7; conditions: Huh7 cells (hepatocellular carcinoma cell line)
Plasmodium falciparum [2] = assay: NOVARTIS: Inhibition of Plasmodium falciparum 3D7 (drug-susceptible) proliferation in erythrocyte-based infection assay; assay type: functional, organism-based; conditions: Plasmodium falciparum, 3D7
Plasmodium falciparum [3] = assay: NOVARTIS: Inhibition of Plasmodium falciparum W2 (drug-resistant) proliferation in erythrocyte-based infection assay; assay type: functional, organism-based; conditions: Plasmodium falciparum, W2; read-out: EC50

For `COc1ccc(OC(C)=O)c(C=NNC(=O)C(C)Oc2ccccc2Br)c1` (centres undefined), the CC50 [1] was greater than 100000 nM, the pEC50 (Plasmodium falciparum [2]) was 5.29 and the pEC50 (Plasmodium falciparum [3]) was 5.55.
Work on `N#Cc1ccc(CNC(=S)Nc2cc(Cl)ccc2Cl)cc1` yielded a CC50 [1] greater than 100000 nM, a pEC50 (Plasmodium falciparum [2]) of 6.38 and a pEC50 (Plasmodium falciparum [3]) of 6.62.
For `CCN(CC)C(=O)c1cn(C2CCN(Cc3ccco3)CC2)nn1`, the CC50 [1] was greater than 10000 nM, the pEC50 (Plasmodium falciparum [2]) was less than 5.90 and the pEC50 (Plasmodium falciparum [3]) was 7.57.
Work on `Oc1ccccc1CN1CCN(C(c2ccccc2)c2ccccc2)CC1` yielded a CC50 [1] of 8920 nM, a pEC50 (Plasmodium falciparum [2]) of 6.13 and a pEC50 (Plasmodium falciparum [3]) of 6.78.
Molecule `Cc1nc(C23CC4CC(CC(C4)C2)C3)cs1` has a CC50 [1] greater than 100000 nM, a pEC50 (Plasmodium falciparum [2]) of less than 4.90 and a pEC50 (Plasmodium falciparum [3]) of 5.73.
`COC(=O)C1=C(C)NC2=C(C(=O)CC(c3ccc(Cl)cc3)C2)C1c1ccc(F)cc1` (centres undefined) gave a CC50 [1] greater than 100000 nM, a pEC50 (Plasmodium falciparum [2]) of 6.73 and a pEC50 (Plasmodium falciparum [3]) of 7.01.
For `O=C(NCCc1ccc(Cl)cc1)C1CCCN(c2nnc(N3CCCC3=O)s2)C1` (centres undefined), the CC50 [1] was greater than 100000 nM, the pEC50 (Plasmodium falciparum [2]) was less than 4.90 and the pEC50 (Plasmodium falciparum [3]) was 5.41.
`O=C(NC1CC1)c1ccc(N2C(=O)C3C4c5ccccc5C(c5ccccc54)C3C2=O)cc1` (centres undefined) showed a CC50 [1] greater than 10000 nM, a pEC50 (Plasmodium falciparum [2]) of less than 6.06 and a pEC50 (Plasmodium falciparum [3]) of 5.72.
Work on `CCN(c1ccc(F)cc1)S(=O)(=O)c1ccc2[nH]cc(C(=O)NC(C)(C)C)c(=O)c2c1` yielded a CC50 [1] greater than 10000 nM, a pEC50 (Plasmodium falciparum [2]) of less than 5.80 and a pEC50 (Plasmodium falciparum [3]) of 6.08.
Molecule `CCOc1ccc(NC(=O)C2c3ccccc3C(=O)N(CC(C)C)C2c2cccs2)cc1` (centres undefined) has a CC50 [1] greater than 100000 nM, a pEC50 (Plasmodium falciparum [2]) of 7.11 and a pEC50 (Plasmodium falciparum [3]) of 7.44.
Molecule `CC[n+]1c(C)cc2c(sc3ccccc32)c1C` has a CC50 [1] greater than 100000 nM, a pEC50 (Plasmodium falciparum [2]) of 5.98 and a pEC50 (Plasmodium falciparum [3]) of 5.73.
Work on `C=CCNc1ncnc2c1c(-c1ccccc1)cn2-c1ccccc1` yielded a CC50 [1] greater than 100000 nM, a pEC50 (Plasmodium falciparum [2]) of 5.34 and a pEC50 (Plasmodium falciparum [3]) of 5.28.
For `COc1cncc(-c2cncc(N3CCN(CCN(C)C)CC3)n2)c1`, the CC50 [1] was greater than 10000 nM, the pEC50 (Plasmodium falciparum [2]) was 6.58 and the pEC50 (Plasmodium falciparum [3]) was 6.16.
Molecule `Cc1ccc(Cn2c(SCc3ccc(C(=O)NCCc4ccccc4)cc3)nc3ccncc32)cc1` has a CC50 [1] greater than 100000 nM, a pEC50 (Plasmodium falciparum [2]) of 6.15 and a pEC50 (Plasmodium falciparum [3]) of 6.76.
`Oc1ccccc1Nc1nc(-c2ccccc2O)nc2ccccc12` showed a CC50 [1] greater than 100000 nM, a pEC50 (Plasmodium falciparum [2]) of 6.24 and a pEC50 (Plasmodium falciparum [3]) of 6.87.
In the case of `COc1cc(OC)c(NC(=O)C2c3ccccc3C(=O)N(CC(C)C)C2c2cccs2)cc1Cl` (centres undefined), the CC50 [1] was greater than 100000 nM, the pEC50 (Plasmodium falciparum [2]) was 6.94 and the pEC50 (Plasmodium falciparum [3]) was 7.04.
Molecule `COc1ccc2c(c1)C(=NN=C(N)N)c1cc(OC)ccc1-2` has a CC50 [1] greater than 10000 nM, a pEC50 (Plasmodium falciparum [2]) of 6.91 and a pEC50 (Plasmodium falciparum [3]) of 6.75.
Work on `CN(C)Cc1c(O)ccc2oc(Cc3ccccc3)cc12` yielded a CC50 [1] of 20100 nM, a pEC50 (Plasmodium falciparum [2]) of 6.66 and a pEC50 (Plasmodium falciparum [3]) of 7.23.
Molecule `O=C(NC1CCN(CC(O)CN(Cc2ccccc2)S(=O)(=O)c2ccccc2)C1)c1cccc2ccccc12` (centres undefined) has a CC50 [1] greater than 10000 nM, a pEC50 (Plasmodium falciparum [2]) of 7.08 and a pEC50 (Plasmodium falciparum [3]) greater than 8.08.
In the case of `O=C(Cc1ccccc1)NC(c1ccc(Cl)cc1)c1ccc2cccnc2c1O` (centres undefined), the CC50 [1] was greater than 100000 nM, the pEC50 (Plasmodium falciparum [2]) was 6.68 and the pEC50 (Plasmodium falciparum [3]) was 6.47.
With `COc1ccc(-n2nc(C(=O)NCC(=O)Nc3nc4ccccc4s3)c3ccccc3c2=O)cc1Cl` the CC50 [1] was greater than 10000 nM, the pEC50 (Plasmodium falciparum [2]) was less than 5.90 and the pEC50 (Plasmodium falciparum [3]) was less than 5.95.
`CC(O)c1ccc(NC(=O)c2cnn3c2NC(c2ccco2)CC3C(F)(F)F)cc1` (centres undefined) gave a CC50 [1] greater than 10000 nM, a pEC50 (Plasmodium falciparum [2]) of less than 5.90 and a pEC50 (Plasmodium falciparum [3]) of less than 6.17.
With `O=C(C1=C(O)C(=O)N(CCCn2ccnc2)C1c1ccccc1[N+](=O)[O-])c1ccccc1` (centres undefined) the CC50 [1] was greater than 100000 nM, the pEC50 (Plasmodium falciparum [2]) was less than 4.90 and the pEC50 (Plasmodium falciparum [3]) was 5.55.
`CNC1=C(N(Cc2ccc(Cl)c(Cl)c2)C(C)=O)C(=O)c2ccccc2C1=O` showed a CC50 [1] of 126 nM, a pEC50 (Plasmodium falciparum [2]) of 8.91 and a pEC50 (Plasmodium falciparum [3]) of 8.90.
Molecule `Cc1ccc(O)c(NC(=O)c2cnn3c(C(F)(F)F)cc(-c4ccc(F)cc4)nc23)c1` has a CC50 [1] greater than 100000 nM, a pEC50 (Plasmodium falciparum [2]) of 4.98 and a pEC50 (Plasmodium falciparum [3]) of 5.24.
Work on `CC1CN(C(=O)c2sc3cccc(F)c3c2Cl)CC(C)O1` (centres undefined) yielded a CC50 [1] greater than 100000 nM, a pEC50 (Plasmodium falciparum [2]) of 6.52 and a pEC50 (Plasmodium falciparum [3]) of 6.64.
`COc1ccc(OC)c(-c2ccc(O)c(CNCCc3ccccc3)c2)c1` gave a CC50 [1] greater than 10000 nM, a pEC50 (Plasmodium falciparum [2]) of 6.18 and a pEC50 (Plasmodium falciparum [3]) of 7.11.
With `O=C(Nc1ccc2c(c1)OCO2)c1cc2cc(C3(O)CCN(CCCc4ccccc4)CC3)ccc2o1` the CC50 [1] was 6320 nM, the pEC50 (Plasmodium falciparum [2]) was 6.04 and the pEC50 (Plasmodium falciparum [3]) was 5.93.
